In data set [1] the test system is intragastric pH. To be noted: cited from earlier work.
In data set [2] the test system is conscious, pentagastrin-stimulated fistula dog. To be noted: cited from earlier work.
Data set [3] can be described thus: Long-term (1 month at −20° C. and −80° C.) stability in untreated human saliva. The following applies: for % Bias / Concentration, Mean / Difference from Fresh (%) / Concentration: 1 month; for Concentration: individual values.
Method: (§1) For long-term stability in untreated human saliva, samples were prepared by spiking untreated human saliva with each analyte at the QC-Low and QC-High levels. The samples were stored in a −20° C. freezer and in a −80° C. freezer. After 1 month of storage, each sample was extracted in replicates of three for analysis.
(§2) A 100-μL aliquot of sample (calibration standards, quality controls, blanks, and stability samples) was transferred into a 96 well plate, according to a pre-defined layout. […] The plates were covered, vortex-mixed and then centrifuged for 5 minutes at 3200 rpm. Supernatants (350 μL each) were transferred into the corresponding wells of a clean 96 well plate and evaporated to dryness under nitrogen in a Turbovap set to 40° C. The dried residue in each well was reconstituted with 75 μL of 50:50 (v:v) methanol:water.
The conditions of data set [4]: in vivo, 3 h.
Method: Saliva samples were collected from 30 subjects from each group (Normal & GERD). All GERD patients were on proton pump inhibitor (PPI) standard therapy and received a PPI dose the morning of the visit to the clinic. Saliva samples were collected for 2 minutes (min) at the following time points: Fasted state in the morning; Various times after eating a hearty breakfast: 1 hour (hr) after meal; 2 hrs after meal; 3 hrs after meal; 4 hrs after meal.
All samples were received frozen, packaged on dry ice, and were stored in a freezer set to maintain a temperature of −80° C. until analysis.
Saliva was collected from human volunteers and then pooled. Aliquots of pooled saliva were stripped of endogenous bile acids by treatment with 2 mg/mL of cholestyramine resin (Sigma Lot No. 1425455V) for 1 hour at 37° C. followed by centrifugation. The treatment/centrifugation cycle was repeated four times for a total of five cycles. After the final treatment, the saliva was pooled for use. […]
Standards were prepared in small volumes on the day of sample extraction and were analyzed in duplicate in each analytical run. […]
The detector was an Applied Biosystems Sciex API-5500 triple quadrupole mass spectrometer. The instrument was equipped with an electrospray ionization source in positive-ion mode and the analytes were monitored in the multiple-reaction-monitoring scan mode. […]
Data set [5] in a line: Frozen (−20° C.) short-term stability in cholestyramine-treated human saliva. The following applies: for % Bias / Concentration, Mean / Concentration: −20° C.; for Concentration: individual values. A digest of the protocol:
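Cholestyramine-treated human saliva was spiked with each analyte at QC-LLOQ, QC-Low, QC-Mid and QC-High levels and stored at −20° C. After 1 day and 2 days of storage, samples were extracted in replicates of four and analysed.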

The conditions of data set [6]: 1 month.
Method: as §1, §2
The mark [7] stands for this setting: −20° C. Storage, QC-High, nominal 80.0 ng/mL.
Where [8] appears, read: −80° C. Storage, QC-High, nominal 80.0 ng/mL.
Where [9] appears, read: 1 Day, QC-High, nominal 80.0 ng/mL.
Setting [10] is: 1 Day, QC-LLOQ, nominal 0.500 ng/mL.
Setting [11] is: 1 Day, QC-Mid, nominal 8.00 ng/mL.
The mark [12] stands for this setting: 2 Days, QC-High, nominal 80.0 ng/mL.
Where [13] appears, read: 2 Days, QC-LLOQ, nominal 0.500 ng/mL.
Setting [14] is: 2 Days, QC-Mid, nominal 8.00 ng/mL.

Several values for one entry are separate records, joined by “and”; a condition that tells them apart may be missing. Equal values may be shown once. Read-outs that look alike come from different tables or passages of the source. Marks after values point to notes of the source that are not given here.

In the case of `COC(=O)Nc1cccc(C)c1CNc1cccn2c(C)c(C)nc12` [BY841, (8-(2-methoxycarbonylamino-6-methyl-phenylmethylamino)-2,3-dimethyl-imidazo [1,2-a]-pyridine)], the “effectiveness in comparison with the standard dose of omeprazole” value in data set [1] (50 mg or 100 mg twice daily, Day one of treatment) is given as “markedly more effective”. Besides, the “potency in comparison with the standard dose of omeprazole” value in data set [1] (50 mg or 100 mg twice daily, following repeated daily administration) was “at least as potent as omeprazole”. In addition, the “intragastric pH” value in data set [1] (single 50 mg oral dose) was “about 6”; in data set [2], ≤ 6. In data set [2], the “pH elevation compared with ranitidine and omeprazole” value was “superior to both ranitidine and omeprazole”.

For the compound `C[C@H](CCC(=O)O)[C@H]1CC[C@H]2[C@@H]3CC[C@@H]4C[C@H](O)CC[C@]4(C)[C@H]3C[C@H](O)[C@]12C` [Deoxycholic Acid, Deoxycholic acid], in data set [3] (at 80° C. (sic)), the “Long-term stability in untreated human saliva” value was “up to 1 month”. Moreover, the “Stability in Untreated Human Saliva” value in data set [3] (at −20° C.) came out at 1 Month. Moreover, in data set [3] (at −80° C.), the “Stability in Untreated Human Saliva” value stood at 1 Month. In addition, the “Concentration in human saliva samples” value in data set [4] is 1.65 ng/mL. In data set [5], the “Short-term stability in cholestyramine-treated human saliva” value was “up to 2 days” and the “Stability in Treated Human Saliva” value stood at 2 days.

For `CC(CCC(=O)NCC(=O)O)C1CCC2C3CCC4CC(O)CCC4(C)C3CC(O)C12C` (stereo not drawn) [Glycodeoxycholic Acid, Glycodeoxycholic acid], the “% Bias” value is −3.9% in data set [3] (setting [7]); −0.1% in data set [3] (setting [8]); −5.0% in data set [5] (setting [9]); −1.1% in data set [5] (setting [10]); −5.0% in data set [5] (setting [11]); −6.1% in data set [5] (setting [12]). Besides, the “% Bias” value in data set [5] (setting [13]) is given as 15.0%; in data set [5] (setting [14]), 2.5%. Also, the “Concentration, Mean” value came out at 76.9 ng/mL in data set [3] (setting [7]); 79.9 ng/mL in data set [3] (setting [8]); 76.0 ng/mL in data set [5] (setting [9]); 0.495 ng/mL in data set [5] (setting [10]); 7.60 ng/mL in data set [5] (setting [11]); 75.2 ng/mL in data set [5] (setting [12]). The “Concentration, Mean” value is 0.575 ng/mL in data set [5] (setting [13]) and 8.20 ng/mL in data set [5] (setting [14]). Also, the “Difference from Fresh (%)” value in data set [3] (setting [7]) came out at 0.7%; in data set [3] (setting [8]), 4.7%. In addition, the Concentration was 75.5 ng/mL and 75.9 ng/mL and 79.2 ng/mL in data set [3] (setting [7]); 81.9 ng/mL and 80.0 ng/mL and 77.8 ng/mL in data set [3] (setting [8]); 76.0 ng/mL and 78.9 ng/mL and 73.6 ng/mL and 75.5 ng/mL in data set [5] (setting [9]); 0.500 ng/mL and 0.472 ng/mL and 0.488 ng/mL and 0.519 ng/mL in data set [5] (setting [10]); 7.43 ng/mL and 8.14 ng/mL and 7.61 ng/mL and 7.21 ng/mL in data set [5] (setting [11]); 74.0 ng/mL and 73.3 ng/mL and 75.6 ng/mL and 77.7 ng/mL in data set [5] (setting [12]). The Concentration in data set [5] (setting [13]) was 0.654^a ng/mL and 0.589 ng/mL and 0.551 ng/mL and 0.599 ng/mL; in data set [5] (setting [14]) it was 7.91 ng/mL and 7.87 ng/mL and 8.54 ng/mL and 8.49 ng/mL. Also, the “Fresh QCs (Batch 34) Mean at Time Zero” value in data set [3] (QC-High, nominal 80.0 ng/mL) is 76.3 ng/mL. The “Long-term stability in untreated human saliva” value in data set [6] is listed as “up to 1 month”. The “Stability in Untreated Human Saliva” value in data set [6] is listed as 1 Month. In addition, the “Short-term stability in cholestyramine-treated human saliva” value in data set [5] was “up to 2 days”. Also, the “Stability in Treated Human Saliva” value in data set [5] came out at 2 days.

Values taken from patent publication US20200138854A1, “Method of Detecting and Quantifying Bile Acid from Saliva” (Ironwood Pharmaceuticals, Inc., priority 2017, published 2020).
